Data: patent publication US12171756B2, “NLRP3 modulators” (Innate Tumor Immunity, Inc., priority 2017, dated 2024)
Read-outs that look alike come from different tables or passages of the source.

Columns and labels:
[1] = system: IL-1β production in PMA-differentiated THP-1 cells; experiment: Measurement of IL-1β production in PMA-differentiated THP-1 cells (ELISA, 4 hours); format: cell-based, human; conditions: assayed using one or more of the described procedures, read-out: NLRP3 hIL1B IC50
In short: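 THP-1 cells differentiated with PMA (10 μg/ml, 24 h), replated at 1×10^6 cells/ml in RPMI with 2% FBS and exposed to compounds (e.g. 0.1–100 μM, 1% DMSO final) for 4 hours. IL-1β in cell-free supernatant quantified by ELISA against vehicle control.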

human TLR8 = target: T1, human TLR8 (Homo sapiens, UniProt Q9NR97); experiment: In vitro human TLR8 binding reporter assay (HEK-Blue, NF-kB/AP1-inducible SEAP); format: cell-based; conditions: HEK-Blue human TLR8 SEAP reporter cells; activity range classes; read-out: TLR8 Agonist EC50
T1 construct: host or cells: human HEK-Blue cells (HEK293-derived) co-expressing TLR8 and an NF-kB/AP1-inducible SEAP reporter
T1 sequence (Q9NR97 27-1041): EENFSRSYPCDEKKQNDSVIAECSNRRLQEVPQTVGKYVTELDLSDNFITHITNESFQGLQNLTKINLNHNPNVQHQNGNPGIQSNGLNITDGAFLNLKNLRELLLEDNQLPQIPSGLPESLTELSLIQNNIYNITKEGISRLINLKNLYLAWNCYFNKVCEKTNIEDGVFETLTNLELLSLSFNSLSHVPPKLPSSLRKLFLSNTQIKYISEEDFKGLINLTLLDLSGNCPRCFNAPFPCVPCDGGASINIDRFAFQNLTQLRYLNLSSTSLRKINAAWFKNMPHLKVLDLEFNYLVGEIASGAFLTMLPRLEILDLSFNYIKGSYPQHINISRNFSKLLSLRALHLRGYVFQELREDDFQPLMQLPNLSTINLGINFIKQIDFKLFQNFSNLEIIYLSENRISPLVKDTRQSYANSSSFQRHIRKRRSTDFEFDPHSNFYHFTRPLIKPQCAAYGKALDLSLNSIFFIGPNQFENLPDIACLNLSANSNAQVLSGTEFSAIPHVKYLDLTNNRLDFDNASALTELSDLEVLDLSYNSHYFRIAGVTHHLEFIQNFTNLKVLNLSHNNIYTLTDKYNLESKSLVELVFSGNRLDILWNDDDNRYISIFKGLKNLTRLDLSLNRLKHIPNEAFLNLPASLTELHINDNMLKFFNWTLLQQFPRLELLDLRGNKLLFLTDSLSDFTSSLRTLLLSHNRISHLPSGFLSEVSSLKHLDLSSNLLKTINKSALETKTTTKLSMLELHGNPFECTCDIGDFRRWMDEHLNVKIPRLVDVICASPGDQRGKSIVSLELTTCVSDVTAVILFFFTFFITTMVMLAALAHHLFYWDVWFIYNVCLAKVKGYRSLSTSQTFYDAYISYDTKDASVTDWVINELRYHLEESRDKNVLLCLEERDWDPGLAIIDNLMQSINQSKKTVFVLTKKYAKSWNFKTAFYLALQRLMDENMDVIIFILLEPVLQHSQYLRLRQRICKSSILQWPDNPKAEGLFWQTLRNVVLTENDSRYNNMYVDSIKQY
In short: (§1)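 Cells are seeded and grown for 24 h. Compounds or DMSO are then added and incubated 18 h at 37 °C. Quanti-Blue is added, and SEAP is read after thirty minutes. EC50 values are normalized, with RLU from 50 μM reference standard setting 100% Ymax.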

human TLR7 = target: T2, human TLR7 (Homo sapiens, UniProt Q9NYK1); experiment: In vitro human TLR7 binding reporter assay (HEK-Blue, NF-kB/AP1-inducible SEAP); format: cell-based; conditions: HEK-Blue human TLR7 SEAP reporter cells; activity range classes; read-out: TLR7 Agonist EC50
T2 construct: host or cells: human HEK-Blue cells (HEK293-derived) co-expressing TLR7 and an NF-kB/AP1-inducible SEAP reporter
T2 sequence (Q9NYK1 27-1049): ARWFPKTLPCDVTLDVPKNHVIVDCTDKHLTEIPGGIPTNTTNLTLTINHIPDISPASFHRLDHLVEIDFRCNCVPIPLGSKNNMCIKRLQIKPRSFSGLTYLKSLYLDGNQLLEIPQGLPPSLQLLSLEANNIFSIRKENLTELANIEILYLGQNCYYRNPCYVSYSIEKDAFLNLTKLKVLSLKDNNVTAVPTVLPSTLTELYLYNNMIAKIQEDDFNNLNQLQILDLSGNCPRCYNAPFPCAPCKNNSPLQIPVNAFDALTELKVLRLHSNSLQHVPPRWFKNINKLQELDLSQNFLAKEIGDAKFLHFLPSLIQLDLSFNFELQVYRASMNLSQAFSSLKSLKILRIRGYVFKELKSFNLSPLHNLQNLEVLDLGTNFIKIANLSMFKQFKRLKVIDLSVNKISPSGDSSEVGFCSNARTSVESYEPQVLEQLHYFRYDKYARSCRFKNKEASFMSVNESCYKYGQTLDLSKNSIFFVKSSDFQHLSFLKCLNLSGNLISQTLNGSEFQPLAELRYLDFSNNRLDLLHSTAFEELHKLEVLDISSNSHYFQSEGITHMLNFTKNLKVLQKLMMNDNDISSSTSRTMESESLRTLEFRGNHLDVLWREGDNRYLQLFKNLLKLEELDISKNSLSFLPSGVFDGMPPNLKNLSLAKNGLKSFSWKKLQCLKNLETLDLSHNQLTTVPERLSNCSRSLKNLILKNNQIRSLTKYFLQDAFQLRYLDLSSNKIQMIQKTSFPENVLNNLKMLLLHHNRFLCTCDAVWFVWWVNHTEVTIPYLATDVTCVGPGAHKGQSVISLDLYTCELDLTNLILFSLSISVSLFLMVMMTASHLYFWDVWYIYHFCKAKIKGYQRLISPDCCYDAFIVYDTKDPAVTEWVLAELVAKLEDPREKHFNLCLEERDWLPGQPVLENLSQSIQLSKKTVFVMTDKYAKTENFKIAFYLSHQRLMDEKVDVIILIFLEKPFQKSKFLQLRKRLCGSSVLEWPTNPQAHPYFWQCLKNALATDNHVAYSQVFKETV
In short: as §1

[2] = Homo sapiens, THP-1, human IL-1β production

IC50 [1, 2] [µM]	EC50 (human TLR8) [µM]	EC50 (human TLR7) [µM]	IC50 ([1]; human IL-1β production) [µM]	Compound
0.85	> 100	> 100	–	Nc1cc(N[C@@H]2CCCOC2)c2ccc(-c3ccn[nH]3)cc2n1 [Compound 289]
1.67	> 100	> 100	–	CCO[C@H]1COC[C@@H]1Nc1cc(N)nc2cc(-c3ccn[nH]3)ccc12 [Compound 291]
0.34	> 100	> 100	–	Nc1cc(NCc2cc[nH]n2)c2ccc(-n3cccn3)cc2n1 [Compound 292]
0.87	> 100	> 100	–	Nc1cc(NCCc2ccccn2)c2ccc(-n3cccn3)cc2n1 [Compound 293]
0.21	> 100	> 100	–	Nc1cc(NCc2nc[nH]n2)c2ccc(-n3cccn3)cc2n1 [Compound 294]
0.31	> 100	> 100	–	Nc1cc(N[C@@H]2CCC[C@@H]2O)c2ccc(-n3cccn3)cc2n1 [Compound 295]
0.56	> 100	> 100	–	Nc1cc(NCCO)c2ccc(-n3cccn3)cc2n1 [Compound 296]
0.57	> 100	> 100	–	Nc1cc(NCCc2nccs2)c2ccc(-n3cccn3)cc2n1 [Compound 297]
0.15	> 100	> 100	–	Nc1cc(NCc2ncc[nH]2)c2ccc(-n3cccn3)cc2n1 [Compound 298]
0.65	> 100	> 100	–	Nc1cc(NCC(F)(F)c2ccccn2)c2ccc(-n3cccn3)cc2n1 [Compound 299]
0.54	> 100	> 100	–	Nc1cc(NCc2ccccn2)c2ccc(-n3cccn3)cc2n1 [Compound 300]
1.01	> 100	> 100	–	CC(C)(O)CCNc1cc(N)nc2cc(-n3cccn3)ccc12 [Compound 301]
0.05	> 100	> 100	–	Nc1cc(NCCn2cccn2)c2ccc(-n3cccn3)cc2n1 [Compound 302]
0.14	> 100	> 100	–	Cc1nc(CNc2cc(N)nc3cc(-n4cccn4)ccc23)cs1 [Compound 303]
0.37	> 100	> 100	–	Nc1cc(N[C@H]2CCC[C@H]2O)c2ccc(-n3cccn3)cc2n1 [Compound 304]
0.64	> 100	> 100	–	CS(=O)(=O)CCNc1cc(N)nc2cc(-n3cccn3)ccc12 [Compound 305]
1.1	> 100	> 100	–	CC(=O)NCCNc1cc(N)nc2cc(-n3cccn3)ccc12 [Compound 306]
0.11	> 100	> 100	–	Nc1cc(NCc2cnc[nH]2)c2ccc(-n3cccn3)cc2n1 [Compound 307]

IC50 [1, 2] [µM]	EC50 (human TLR8) [µM]	EC50 (human TLR7) [µM]	IC50 ([1]; human IL-1β production) [µM]	Compound
0.52	> 100	> 100	–	Nc1cc(NCCn2cncn2)c2ccc(-n3cccn3)cc2n1 [Compound 308]
0.42	> 100	> 100	–	Nc1cc(NCc2cccnn2)c2ccc(-n3cccn3)cc2n1 [Compound 309]
0.11	> 100	> 100	–	CC(C)(CO)COc1cc(N)nc2cc(-c3ccn[nH]3)ccc12 [Compound 310]
3.13	> 100	> 100	–	Cn1nncc1COc1cc(N)nc2cc(-c3ccn[nH]3)ccc12 [Compound 311]
1.59	> 100	> 100	–	Cn1ncnc1COc1cc(N)nc2cc(-c3ccn[nH]3)ccc12 [Compound 312]
0.11	> 100	> 100	–	Nc1cc(OCc2ccn[nH]2)c2ccc(-c3ccn[nH]3)cc2n1 [Compound 313, 4-((1H-pyrazol-5-yl)methoxy)-7-(1H-pyrazol-5-yl)quinolin-2-amine]
1.8	> 100	> 100	–	Nc1ccc2ccc(-c3ccn[nH]3)cc2n1 [Compound 314, 7-(1H-pyrazol-5-yl)quinolin-2-amine]
1.52	> 100	> 100	–	Nc1cc(NC(CO)CO)c2ccc(-c3ccn[nH]3)cc2n1 [Compound 315, 2-((2-amino-7-(1H-pyrazol-5-yl)quinolin-4-yl)amino)propane-1,3-diol]
0.56	> 100	> 100	–	Nc1cc(NCc2ncccn2)c2ccc(-c3ccn[nH]3)cc2n1 [Compound 316, 7-(1H-pyrazol-5-yl)-N4-(pyrimidin-2-ylmethyl)quinoline-2,4-diamine]
0.69	> 100	> 100	–	Nc1cc(NCc2cncnc2)c2ccc(-c3ccn[nH]3)cc2n1 [Compound 317]
0.07	> 100	> 100	–	Nc1cc(NCCCO)c2cc(F)c(-c3ccn[nH]3)cc2n1 [Compound 318, 3-((2-amino-6-fluoro-7-(1H-pyrazol-5-yl)quinolin-4-yl)amino)propan-1-ol]
25.7	> 100	> 100	–	Cc1cc2c(NCCCO)cc(N)nc2cc1-c1ccn[nH]1 [Compound 319]
27.7	> 100	> 100	–	COc1cc2c(NCCCO)cc(N)nc2cc1-c1ccn[nH]1 [Compound 320]
0.61	> 100	> 100	–	Nc1cc(NCCc2cccs2)c2ccc(-c3cc[nH]n3)cc2n1 [Compound 322, 7-(1H-pyrazol-3-yl)-N4-(2-(thiophen-2-yl)ethyl)quinoline-2,4-diamine]
–	> 100	> 100	5.72	Nc1cc(N[C@@H]2CCNC2)c2ccc(-c3ccn[nH]3)cc2n1 [Compound 323]
1.76	> 100	> 100	–	Nc1cc(N[C@H]2CCCNC2)c2ccc(-c3ccn[nH]3)cc2n1 [Compound 324]
23.2	> 100	> 100	–	Nc1cc(NCC2CNC2)c2ccc(-c3ccn[nH]3)cc2n1 [Compound 325]
